Ten compounds from US20210395256A1, “TYROSINE KINASE INHIBITORS, COMPOSITIONS AND METHODS THERE OF” (Betta Pharmaceuticals Co., Ltd., priority 2018, published 2021) can be followed below.

In general, microsomal CLint refers to the capacity of the preparation to metabolise the compound, expressed as a volume cleared per time. A word on the IC50: it is the concentration at which inhibition is half-maximal.

Data set [1] in a line: Liver microsomes metabolic stability assay, rat. Format: in vitro ADME. Particulars: male, rat liver microsomes 0.5 mg/mL, 37° C.; for half-life at 2 μM: read-out: t1/2 Rat. The procedure, abridged:
(§1)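 Pooled human, male rat or male mouse liver microsomes (0.5 mg/mL final) incubated at 37° C with 2 μM compound, with or without 1 mM NADPH. Samples at 0-60 min quenched in cold acetonitrile and analyzed by LC-MS/MS in duplicate. t1/2 derived from ln(% remaining) vs time slope, converted to CLint (μL/min/mg).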
Background: Liver microsomes are a subcellular fraction often used to study metabolism.

In the next data set the target is TrkA kinase (Homo sapiens, UniProt P04629). As to the kind of experiment: TrkA kinase assay (mobility shift assay). Particulars: read-out: Trk A Kinase IC50. Format: biochemical. The essentials:
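Ten-point compound series was preincubated 10 min at room temperature with TrkA, then FAM-peptide plus ATP added in HEPES pH 7.5/Brij-35 buffer and reacted at 28 °C before EDTA quench.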

Data set [2] is described as follows: Liver microsomes metabolic stability assay, mouse. Format: in vitro ADME. The note with it: male, mouse liver microsomes 0.5 mg/mL, 37° C.; for half-life at 2 μM: read-out: t1/2 Mouse. The essentials: as §1
Another data set deals with T1, Ba/F3-TPM3-NTRK1 (Homo sapiens, UniProt P04629).
T1 construct: expressed in transfected cells; host or cells: Ba/F3; the other entry of the earlier key: TPM3 (P06753, Tropomyosin alpha-3 chain)
T1 sequence (P04629 510-796 limits assumed): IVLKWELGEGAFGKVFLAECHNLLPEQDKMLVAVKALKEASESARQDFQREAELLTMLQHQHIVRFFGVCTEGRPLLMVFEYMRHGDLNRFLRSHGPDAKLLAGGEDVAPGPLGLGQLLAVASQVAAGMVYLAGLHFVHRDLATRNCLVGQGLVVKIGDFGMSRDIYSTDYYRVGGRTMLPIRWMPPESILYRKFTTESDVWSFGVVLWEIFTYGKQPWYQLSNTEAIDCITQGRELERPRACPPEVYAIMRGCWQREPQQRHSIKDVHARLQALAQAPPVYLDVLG
The data set can be described thus: Ba/F3-TPM3-NTRK1 cells proliferation assay. Particulars: 72 h, CellTiter Glo. In kind it is cell-based. The protocol:
(§2) Example 202 Ba/F3-TPM3-NTRK1 and Ba/F3-ETV6-NTRK3 cells proliferation assay
(§3) Cell line: Ba/F3 cells with TPM3-NTRK1 or ETV6-NTRK3 fusion mutation gene stably overexpressed named Ba/F3-TPM3-NTRK1 and Ba/F3-ETV6-NTRK3.
(§4) RPMI 1640 and 10% FBS and 1% PS and 2 ug/mL puromycin.
(§5) b) Collect cell to a 15 mL centrifuged tube, centrifuge at 1000 rpm for 5 min. Discard the supernatant, count, and make the cell density at 1.49×10^4 cells/mL, then place it in a 37° C., 5% CO2 incubator.
(§6) a) The test compound (20 mM stock solution) was diluted to 60 μM with 100% DMSO as starting concentration then 3-fold serial diluted with “9+0” concentrations. in a 96-well dilution plate (Thermo, Cat. No. 249944);
(§7) b) The above compound solution was diluted 1:20 times with culture medium to prepare a 10 fold working solution;
(§8) a) Take cells in log phase growth, centrifuge at 1000 rpm for 5 min, then resuspend the cells with culture medium, then count cells;
(§9) b) Cells were seeded to 96-well cell culture plate with density at 2000 cells/well;
(§10) a) Compounds prepared at step 2 were added to cell plate with 15 μL per well, the final concentrations were 300, 100, 33.33, 11.11, 3.70, 1.23, 0.41, 0.14, 0.05 and 0 nM, and the final concentration of DMSO was 0.5%. The blank control well was a culture medium (0.5% DMSO);
(§11) c) The cells were incubated for an additional 72 h in the incubator.
(§12) a) Remove the 96-well cell culture plate and add 50 μl of CTG reagent (CellTiter Glo kit, promega, Cat #G7573).
(§13) b) Plate was shaked for 2 min and then let it cool for 30 min at room temperature.
(§14) c) The Luminescence signal value was read using a PerkinElmer reader.
(§15) Experimental Data Analysis
(§16) Data were analyzed using GraphPad Prism 6.0 software to obtain a fitted curve of compound activity.
(§17) Fit the Compound IC50 from non-linear regression equation:
(§18) Y=Bottom+(Top-Bottom)/(1+10^((Log IC50-X)×HillSlope));
(§19) X: The log of the concentration of the compound; Y: Luminescence value.
A general note: In ATP-based viability assays light output follows the ATP content of the culture.

The next data set addresses NTRK1-G595R (Homo sapiens, UniProt P04629, G595R). As to the kind of experiment: NTRK1-G595R cell proliferation assay (Table 13). In kind it is cell-based.
A short description of data set [3]: Liver microsomes metabolic stability assay, human. In kind it is in vitro ADME. Particulars: human liver microsomes 0.5 mg/mL, 37° C.; for half-life at 2 μM: read-out: t1/2 Human. The essentials: as §1
The next data set deals with T2, Ba/F3-ETV6-NTRK3 (Homo sapiens, UniProt Q16288).
T2 construct: Ba/F3 cells with TPM3-NTRK1 or ETV6-NTRK3 fusion mutation gene stably overexpressed named Ba/F3-TPM3-NTRK1 and Ba/F3-ETV6-NTRK3; fused on or other part: P41212 (Transcription factor ETV6)
T2 sequence (Q16288 whole entry, the tested form may be a part): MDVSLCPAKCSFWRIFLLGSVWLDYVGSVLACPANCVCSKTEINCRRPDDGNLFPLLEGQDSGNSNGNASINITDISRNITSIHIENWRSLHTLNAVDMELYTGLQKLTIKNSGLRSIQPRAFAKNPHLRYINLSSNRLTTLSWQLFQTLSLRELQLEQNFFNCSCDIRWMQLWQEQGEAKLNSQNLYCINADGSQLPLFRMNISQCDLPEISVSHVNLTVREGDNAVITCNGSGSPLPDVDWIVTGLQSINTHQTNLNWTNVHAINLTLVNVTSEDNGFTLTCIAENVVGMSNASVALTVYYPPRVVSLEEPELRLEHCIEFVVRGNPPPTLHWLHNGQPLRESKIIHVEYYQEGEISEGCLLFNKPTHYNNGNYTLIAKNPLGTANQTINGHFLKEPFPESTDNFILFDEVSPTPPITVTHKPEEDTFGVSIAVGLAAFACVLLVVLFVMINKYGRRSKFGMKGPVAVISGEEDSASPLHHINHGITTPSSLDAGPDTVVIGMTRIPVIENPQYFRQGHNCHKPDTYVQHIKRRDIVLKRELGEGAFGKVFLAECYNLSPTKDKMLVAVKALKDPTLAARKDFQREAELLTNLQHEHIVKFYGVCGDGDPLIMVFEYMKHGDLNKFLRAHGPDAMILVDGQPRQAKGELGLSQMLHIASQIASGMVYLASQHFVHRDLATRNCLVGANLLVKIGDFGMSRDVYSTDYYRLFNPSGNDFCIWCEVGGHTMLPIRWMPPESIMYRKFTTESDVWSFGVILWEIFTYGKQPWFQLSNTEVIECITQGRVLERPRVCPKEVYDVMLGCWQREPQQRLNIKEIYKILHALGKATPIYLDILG
As to the kind of experiment: Ba/F3-ETV6-NTRK3 cells proliferation assay. Particulars: 72 h, CellTiter Glo. In kind it is cell-based. How it is done: as §2, §3, §4, §5, §6, §7, §8, §9, §10, §11, §12, §13, §14, §15, §16, §17, §18, §19

Like-named read-outs stand apart in the source and are kept apart here.

TrkA kinase, sequence (P04629 33-796): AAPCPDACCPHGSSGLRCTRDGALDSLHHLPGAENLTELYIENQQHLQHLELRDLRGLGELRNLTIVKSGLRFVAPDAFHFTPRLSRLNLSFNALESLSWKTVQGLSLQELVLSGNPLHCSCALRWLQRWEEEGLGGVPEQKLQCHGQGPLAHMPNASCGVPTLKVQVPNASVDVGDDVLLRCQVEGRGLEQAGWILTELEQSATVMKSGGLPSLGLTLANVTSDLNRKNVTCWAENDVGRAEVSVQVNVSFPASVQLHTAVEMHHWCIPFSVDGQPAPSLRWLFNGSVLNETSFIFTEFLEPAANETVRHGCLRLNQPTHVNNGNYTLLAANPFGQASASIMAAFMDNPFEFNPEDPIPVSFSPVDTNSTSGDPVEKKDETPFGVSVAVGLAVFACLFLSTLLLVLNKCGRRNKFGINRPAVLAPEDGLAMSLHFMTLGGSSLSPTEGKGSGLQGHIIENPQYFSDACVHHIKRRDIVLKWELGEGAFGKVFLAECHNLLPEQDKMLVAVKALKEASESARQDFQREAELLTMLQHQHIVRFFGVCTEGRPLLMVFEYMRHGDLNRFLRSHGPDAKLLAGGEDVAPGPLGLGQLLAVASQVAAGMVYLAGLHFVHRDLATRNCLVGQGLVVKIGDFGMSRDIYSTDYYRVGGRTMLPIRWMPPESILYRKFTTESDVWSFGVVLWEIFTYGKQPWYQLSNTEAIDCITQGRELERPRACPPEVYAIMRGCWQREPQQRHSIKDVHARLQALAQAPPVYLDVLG
NTRK1-G595R, sequence (P04629 33-796 G595R): as the sequence (P04629 33-796) above, with G563R counted along it

With `N#Cc1cc2[nH]c(-c3cnn4ccc(N5CCC[C@@H]5c5cc(F)ccc5F)nc34)nc2cc1F` [Compound 123, (R)-2-(5-(2-(2,5-difluorophenyl)pyrrolidin-1-yl)pyrazolo[1,5-a]pyrimidin-3-yl)-5-fluoro-1H-benzo[d]imidazole-6-carbonitrile], the intrinsic clearance (microsomal CLint) at 2 μM was 60.8 µL/min/mg in data set [1], 39 µL/min/mg in data set [2] and 94.1 µL/min/mg in data set [3]. Moreover, the values for the half-life at 2 μM in data set [1], in data set [2] and in data set [3] were 22.8 min, 35.5 min and 14.7 min, respectively. Also, the IC50 at TrkA kinase (class symbols) was at most 10 nM; against Ba/F3-TPM3-NTRK1, 1.9 nM; against NTRK1-G595R, 117 nM.
Turning to `COc1cc2nc(-c3cnn4ccc(N5CCC[C@@H]5c5cc(F)ccc5F)nc34)[nH]c2cc1C#N` [Compound 125, (R)-2-(5-(2-(2,5-difluorophenyl)pyrrolidin-1-yl)pyrazolo[1,5-a]pyrimidin-3-yl)-5-methoxy-1H-benzo[d]imidazole-6-carbonitrile], the results for the microsomal CLint at 2 μM in data set [1], in data set [2] and in data set [3] were 15 µL/min/mg, 16.4 µL/min/mg and 17.2 µL/min/mg, respectively. The values for the half-life at 2 μM in data set [1], in data set [2] and in data set [3] were 92.4 min, 84.5 min and 80.6 min, respectively. Besides, the IC50 on Ba/F3-ETV6-NTRK3 worked out at 2.21 nM; on TrkA kinase (numeric values), 1.1 nM; at Ba/F3-TPM3-NTRK1, 1.38 nM; against NTRK1-G595R, 46.6 nM.
Take `CSc1cc2nc(-c3cnn4ccc(N5CCC[C@@H]5c5cc(F)ccc5F)nc34)[nH]c2cc1C#N` [Compound 126, (R)-2-(5-(2-(2,5-difluorophenyl)pyrrolidin-1-yl)pyrazolo[1,5-a]pyrimidin-3-yl)-5-(methylthio)-1H-benzo[d]imidazole-6-carbonitrile]: the intrinsic clearance (microsomal CLint) at 2 μM in data set [1] is 21 µL/min/mg; in data set [2], 33.4 µL/min/mg; in data set [3], 42.2 µL/min/mg. The half-life at 2 μM was 66 min in data set [1], 41.5 min in data set [2] and 32.8 min in data set [3]. Moreover, the IC50 on TrkA kinase (class symbols) was at most 10 nM; against Ba/F3-TPM3-NTRK1, 1.04 nM; against NTRK1-G595R it was 106 nM.
Consider `N#Cc1cc2nc(-c3cnn4ccc(N5CCC[C@@H]5c5cc(F)ccc5F)nc34)[nH]c2cc1C#N` [Compound 148, (R)-2-(5-(2-(2,5-difluorophenyl)pyrrolidin-1-yl)pyrazolo[1,5-a]pyrimidin-3-yl)-1H-benzo[d]imidazole-5,6-dicarbonitrile], for which the values for the intrinsic clearance (microsomal CLint) at 2 μM in data set [1], in data set [2] and in data set [3] were 3.6 µL/min/mg, 14 µL/min/mg and 1.2 µL/min/mg, respectively. Besides, the half-life at 2 μM is 385 min in data set [1], 99 min in data set [2] and 1160 min in data set [3]. Further, the IC50 against Ba/F3-ETV6-NTRK3 is 1.56 nM; at TrkA kinase (numeric values), 1.5 nM; at Ba/F3-TPM3-NTRK1 it was 2.19 nM; on NTRK1-G595R, 81.8 nM.
As to `COC(=O)c1cc2nc(-c3cnn4ccc(N5CCC[C@@H]5c5cc(F)ccc5F)nc34)[nH]c2cc1OC` [Compound 155, methyl (R)-2-(5-(2-(2,5-difluorophenyl)pyrrolidin-1-yl)pyrazolo[1,5-a]pyrimidin-3-yl)-6-methoxy-1H-benzo[d]imidazole-5-carboxylate], the IC50 at Ba/F3-ETV6-NTRK3 was determined as 0.53 nM; on TrkA kinase (numeric values), 0.6 nM; against Ba/F3-TPM3-NTRK1, 1.2 nM; against NTRK1-G595R it was 18.2 nM.
Taken in the same sequence, the figures for `N#Cc1cc2nc(-c3cnn4ccc(N5CCC[C@@H]5c5cc(F)ccc5F)nc34)[nH]c2cc1OC(F)F` [Compound 156, (R)-6-(difluoromethoxy)-2-(5-(2-(2,5-difluorophenyl)pyrrolidin-1-yl)pyrazolo[1,5-a]pyrimidin-3-yl)-1H-benzo[d]imidazole-5-carbonitrile] were 5.65 nM, 4.8 nM, 3.92 nM and 183 nM.
In the case of `CNC(=O)c1cc2nc(-c3cnn4ccc(N5CCC[C@@H]5c5cc(F)ccc5F)nc34)[nH]c2cc1OC` [Compound 160, (R)-2-(5-(2-(2,5-difluorophenyl)pyrrolidin-1-yl)pyrazolo[1,5-a]pyrimidin-3-yl)-6-methoxy-N-methyl-1H-benzo[d]imidazole-5-carboxamide], the microsomal CLint at 2 μM turned out to be 92.4 µL/min/mg in data set [1], 105 µL/min/mg in data set [2] and 56.2 µL/min/mg in data set [3]. Besides, the half-life at 2 μM in data set [1] was 15 min; in data set [2], 13.2 min; in data set [3] it was 24.7 min. Further, the concentration for half-maximal inhibition (IC50) against Ba/F3-ETV6-NTRK3 was 2.05 nM; at TrkA kinase (numeric values) it was 0.43 nM; on Ba/F3-TPM3-NTRK1, 1.06 nM; against NTRK1-G595R it was 15.6 nM.
On to `COCCOc1cc2[nH]c(-c3cnn4ccc(N5CCC[C@@H]5c5cc(F)ccc5F)nc34)nc2cc1C#N` [Compound 169, (R)-2-(5-(2-(2,5-difluorophenyl)pyrrolidin-1-yl)pyrazolo[1,5-a]pyrimidin-3-yl)-6-(2-methoxyethoxy)-1H-benzo[d]imidazole-5-carbonitrile], for which the microsomal CLint at 2 μM in data set [1] came to 78.4 µL/min/mg; in data set [2], 102 µL/min/mg; in data set [3], 55.8 µL/min/mg. For the same compound, the half-life at 2 μM in data set [1] was 17.7 min; in data set [2], 13.5 min; in data set [3], 24.8 min. The figures for the IC50 on TrkA kinase (class symbols), on Ba/F3-TPM3-NTRK1 and at NTRK1-G595R were at most 10 nM, 2.91 nM and 103 nM, respectively.
`C[S+]([O-])c1cc2nc(-c3cnn4ccc(N5CCC[C@@H]5c5cc(F)ccc5F)nc34)[nH]c2cc1C#N` (stereo partly drawn) [Compound 171, 2-(5-((R)-2-(2,5-difluorophenyl)pyrrolidin-1-yl)pyrazolo[1,5-a]pyrimidin-3-yl)-5-(methylsulfinyl)-1H-benzo[d]imidazole-6-carbonitrile]: the microsomal CLint at 2 μM came to 58.2 µL/min/mg in data set [1], 71.2 µL/min/mg in data set [2] and 45.4 µL/min/mg in data set [3]. For the same compound, the half-life at 2 μM stood at 23.8 min in data set [1], 19.5 min in data set [2] and 30.5 min in data set [3]. For the same compound, the IC50 was determined as 2.63 nM at Ba/F3-ETV6-NTRK3, 1 nM on TrkA kinase (numeric values), 3.41 nM against Ba/F3-TPM3-NTRK1 and 216 nM at NTRK1-G595R.
`CS(=O)(=O)c1cc2nc(-c3cnn4ccc(N5CCC[C@@H]5c5cc(F)ccc5F)nc34)[nH]c2cc1C(N)=O` [Compound 173, (R)-2-(5-(2-(2,5-difluorophenyl)pyrrolidin-1-yl)pyrazolo[1,5-a]pyrimidin-3-yl)-5-(methylsulfonyl)-1H-benzo[d]imidazole-6-carboxamide]: the microsomal CLint at 2 μM was 45.2 µL/min/mg in data set [1], 97.6 µL/min/mg in data set [2] and 46.6 µL/min/mg in data set [3]. Besides, the half-life at 2 μM in data set [1] came to 30.7 min; in data set [2], 14.2 min; in data set [3], 29.7 min. In addition, the IC50 was at most 10 nM on TrkA kinase (class symbols), 2.19 nM at Ba/F3-TPM3-NTRK1 and 89.8 nM on NTRK1-G595R.
